Reference: patent US5552156A, “Liposomal and micellular stabilization of camptothecin drugs” (Ohio State University, priority 1995, dated 1996)
“And” between values parts separate entries of the source, which are not always exact repeats. Equal values may be shown once.

Legend:
[1] = tested on: lung, breast, and malignant melanoma; conditions: background; cited from earlier work
[2] = Overall association constant by fluorescence anisotropy titration, DMPC liposomes; format: physicochemical; conditions: 2 mM drug, 0.29M DMPC
[3] = Iodide quenching of camptothecin fluorescence; format: physicochemical
Source text: Additional evidence that the fluorochrome of the camptothecin drugs penetrates into the membrane of the liposome comes from iodide quenching data. Iodide has an immeasurably small permeation of the liposome membrane and is able to discriminate between camptothecin drug molecules free in solution and those molecules located in the interior of the liposome membrane. These methods have been described in detail in Burke and Tritton, Biochemistry (1985) 24: 5972-5980; G. L. Jendrasiak, Chem. Phys. Lipids 9: 133-146 (1992); and, M. Cranney et al. Biochem. Biophys. ACTA 735, 418-425, which are incorporated herein by reference. The quenching studies were conducted using 0.5M iodide in PBS buffer.
The quenching of fluorescence of both camptothecin free in PBS and liposome membrane bound camptothecin by iodide ions was conducted at a constant halide concentration of 0.5M, in the presence of 2 mM sodium thiosulfate to prevent the oxidation of iodide. The camptothecin concentration was 1×10^-6 M and the iodide concentration was varied from 0 to 0.5M, and the chloride concentration was adjusted accordingly. The quenching experiments for the camptothecin bound to DMPC or DMPG liposome membranes were done at a lipid concentration of 100 mg/mL, so that the fraction of the bound camptothecin was more than 97%.
Fluorescence of the liposome membrane bound camptothecin is quenched to relatively lower extent, for instance, F0 /F, for camptothecin bound to DMPC liposomes is only 4.1 (see Plot C). Also, there is a clear cut upward curvature in the F0 /F vs. [I] plot (curve "A", […]) for camptothecin free in PBS whereas F0 /F vs. [I] plot for camptothecin bound with DMPC membranes is linear. Quenching of fluorescence is believed to proceed via the dynamic (or collisional) and static quenching processes. Fluorescence quenching by a quencher molecule in contact with the fluorophore at the instant of excitation is considered to be static quenching. The static and dynamic quenching processes are separated by the following modified form of the Stern-Volmer equation (Eftink & Ghiron, 1976): […]
where, V is the static quenching constant and Ksv the dynamic or collisional quenching constant. The V and Ksv values were obtained by fitting the quenching data to equation 3 with a value of V which gave the best correlation coefficient for the plot of F0 /Fe^v[Q] vs. [Q]. The upward curvature of the quenching data of free camptothecin free in PBS seen in FIG. 8 could be attributed to the static quenching process. The straight line "B", which is tangential to the F0 /F vs. [I] plot for free camptothecin in PBS, represents the dynamic part of the iodide quenching of camptothecin fluorescence, the slope of which is equal to Ksv (slope=44 3M^-1 where V=14M^-1 correlation coefficient=0.9993). The Stern-Volmer plot for the liposome bound camptothecin is linear, curve "C", FIG. 8, the slope being 6.1M^-1. […] The dashed line represents the static and dynamic quenching components camptothecin free in solution is determined by F0 /F values.

[4] = bound to DMPC liposomes, iodide

For `CC[C@@]1(O)C(=O)OCc2c1cc1n(c2=O)Cc2cc3ccccc3nc2-1` [camptothecin], the “effectiveness against other experimental cancer types” value [1] is listed as “effective against other experimental cancer types such as lung, breast, and malignant melanoma”, the “bound camptothecin level at raised drug concentration” value [2] is listed as 97% and the “fraction of bound camptothecin in quenching experiments” value ([3]; DMPC or DMPG, lipid 100 mg/mL) is listed as “more than 97%”. For the same molecule, the “F0/F (iodide quenching), DMPC-bound” value ([3]; bound to DMPC liposomes, 0.5M iodide) was 4.1, the “dynamic quenching constant Ksv (slope), DMPC-bound” value [3, 4] was 6.1 M⁻¹ and 6.2 M⁻¹ and the “static quenching constant V, DMPC-bound” value [3, 4] was 0 M⁻¹. The “F0/F (iodide quenching), free” value ([3]; free in PBS pH 7.4, 0.5M iodide) was “about 54.3” and the “dynamic quenching constant Ksv, free” value ([3]; free in PBS, iodide) was 44.3 M⁻¹.
